Measurements from patent US7368475B2, “Furanose-type bicyclic carbohydrates with biological activity” (Kemin Pharma BVBA, priority 2003, dated 2008).
Converted amounts (≈) assume the structure as drawn.

Tests used:
HSV-1 (KOS) = experiment: HSV-1 (KOS)-induced cytopathicity in human embryo fibroblast E6SM; assay type: cell-based, Herpes Simplex Virus; conditions: Human alphaherpesvirus 1
HSV-2 (G) = experiment: HSV-2 (G)-induced cytopathicity in human embryo fibroblast E6SM; assay type: cell-based, Herpes Simplex Virus; conditions: Human alphaherpesvirus 2
VV = experiment: VV-induced cytopathicity in human embryo fibroblast E6SM; assay type: cell-based, Vaccinia Virus; conditions: for EC50: Orthopoxvirus vaccinia, E6SM, read-out: EC50 VV (E6SM)
CMV AD-169 Strain = experiment: CMV plaque formation in HEL cells, AD-169 strain; assay type: cell-based, human Cytomegalovirus; conditions: for IC50: Human betaherpesvirus 5, AD169, virus plaque formation, HEL cells, virus input 100 PFU; for activity against CMV (in words): strain not specified
CMV David Strain = experiment: CMV plaque formation in HEL cells, David strain; assay type: cell-based, human Cytomegalovirus; conditions: Human betaherpesvirus 5, virus plaque formation, virus input 100 PFU
[1] = system: E. faecalis ATCC 29212 LMG 8222; experiment: microbe, parasite or virus in culture; assay type: cell-based; conditions: Enterococcus faecalis, negative control = 100, read-out: % of growth at 25 PPM compared to negative control, E. faecalis ATCC 29212 LMG 8222
[2] = system: S. aureus ATCC 29213 LMG 10147; experiment: microbe, parasite or virus in culture; assay type: cell-based; conditions: Staphylococcus aureus, negative control = 100, read-out: % of growth at 25 PPM compared to negative control, S. aureus ATCC 29213 LMG 10147
[3] = system: P. aeruginosa ATCC 27853 LMG 16217; experiment: microbe, parasite or virus in culture; assay type: cell-based; conditions: Pseudomonas aeruginosa, negative control = 100, read-out: % of growth at 25 PPM compared to negative control, P. aeruginosa ATCC 27853 LMG 16217
E. coli ATCC 25922 = experiment: microbe, parasite or virus in culture; assay type: cell-based; conditions: Escherichia coli, ATCC25922, negative control = 100, read-out: % of growth at 25 PPM compared to negative control, E. coli ATCC 25922
[4] = system: C. perfringens ATCC 13124; assay type: cell-based, Clostridium perfringens; conditions: negative control = 100
[5] = system: Candida albicans ATCC 24433 IHEM 10284; experiment: microbe, parasite or virus in culture; assay type: cell-based; conditions: ATCC24433, negative control = 100, read-out: % of growth at a dose of 25 PPM compared to the negative control, Candida albicans ATCC 24433 IHEM 10284
[6] = system: T. mentagrophytes ATCC 9233 IHEM 10342; experiment: microbe, parasite or virus in culture; assay type: cell-based; conditions: Trichophyton mentagrophytes, ATCC9233, negative control = 100, read-out: % of growth at a dose of 25 PPM compared to the negative control, T. mentagrophytes ATCC 9233 IHEM 10342
A. fumigatus IHEM 2895 = experiment: microbe, parasite or virus in culture; assay type: cell-based; conditions: Aspergillus fumigatus, IHEM2895, negative control = 100, read-out: % of growth at a dose of 25 PPM compared to the negative control, A. fumigatus IHEM 2895
[7] = system: C. neoformans ATCC 90112 IHEM 9558; experiment: microbe, parasite or virus in culture; assay type: cell-based; conditions: Cryptococcus neoformans, ATCC90112, negative control = 100, read-out: % of growth at a dose of 25 PPM compared to the negative control, C. neoformans ATCC 90112 IHEM 9558
HIV-1 (IIIB) = experiment: microbe, parasite or virus in culture; assay type: cell-based; conditions: Human immunodeficiency virus 1, IIIB, CCRF-CEM; HIV-induced cytopathicity in human CEM cell cultures
HIV-2 (ROD) = experiment: HIV-2 (ROD)-induced cytopathicity in human CEM cell cultures; assay type: cell-based; conditions: Human immunodeficiency virus 2, CCRF-CEM
VZV OKA = experiment: microbe, parasite or virus in culture; assay type: cell-based, Varicella Zoster Virus; conditions: Human alphaherpesvirus 3, HEL, read-out: EC50 VZV (HEL) OKA
VZV 07/1 = experiment: microbe, parasite or virus in culture; assay type: cell-based, Varicella Zoster Virus; conditions: Human alphaherpesvirus 3, HEL, read-out: EC50 VZV (HEL) 07/1
[8] = system: murine leukemia cells (L1210/0); experiment: Inhibition of proliferation of murine leukemia cells L1210/0; assay type: cell-based; conditions: for IC50: Mus musculus, L1210/0, read-out: IC50 L1210/0; for effect on cell proliferation (in words): at concentrations up to 200 ppm, L1210/0, FM3A
Description: (§1) The compounds were tested for antitumor activity via the inhibitory effects on the proliferation of murine leukemia cells (L1210/0), murine mammary carcinoma cells (FM3A) and human T-lymphocyte cells (Molt4/C8), (CEM/0). […] Compound A1 and Compound A4 show no effect at concentrations up to 200 ppm.

[9] = system: murine mammary carcinoma cells (FM3A); experiment: Inhibition of proliferation of murine mammary carcinoma cells FM3A; assay type: cell-based; conditions: Mus musculus, cytostatic activity, 50% inhibitory concentration, read-out: IC50 FM3A/0
Description: as §1

[10] = system: human T-lymphocyte cells (Molt4/C8); experiment: Inhibition of proliferation of human T-lymphocyte cells Molt4/C8; assay type: cell-based; conditions: cytostatic activity, 50% inhibitory concentration
Description: as §1

[11] = system: human T-lymphocyte cells (CEM/0); experiment: Inhibition of proliferation of human T-lymphocyte cells CEM/0; assay type: cell-based; conditions: CCRF-CEM, cytostatic activity, 50% inhibitory concentration
Description: as §1

| SMILES | EC50 (HSV-1 (KOS)) [µg/mL] | EC50 (HSV-2 (G)) [µg/mL] | EC50 (VV) [µg/mL] | IC50 (CMV AD-169 Strain) [µg/mL] | IC50 (CMV David Strain) [µg/mL] | activity at 25 ppm [1] [%] | activity at 25 ppm [2] [%] | activity at 25 ppm [3] [%] | activity at 25 ppm (E. coli ATCC 25922) [%] | % of growth at 25 PPM compared to negative control, C. perfringens ATCC 13124 [4] [%] | activity at 25 ppm [5] [%] | activity at 25 ppm [6] [%] | activity at 25 ppm (A. fumigatus IHEM 2895) [%] | activity at 25 ppm [7] [%] | EC50 (HIV-1 (IIIB)) [µg/mL] | EC50 (HIV-2 (ROD)) [µg/mL] | EC50 (VZV OKA) [µg/mL] | EC50 (VZV 07/1) [µg/mL] | IC50 [8] [µg/mL] | IC50 [9] [µg/mL] | other results |
| --- | --- | --- | --- | --- | --- | --- | --- | --- | --- | --- | --- | --- | --- | --- | --- | --- | --- | --- | --- | --- | --- |
| CC(=O)OC[C@H]1O[C@@H](c2ccccc2)C[C@@H]1OC(C)=O [Compound A7, β-D-1,2-dideoxy-1-phenyl-ribofuranose-3,5-diacetate] | > 400 | > 400 | > 400 | > 100 | > 100 | 98.1 | 91.2 | 92.7 | 94.8 | 95.4 | 83.4 | 83 | 95 | 67.8 | – | – | – | – | – | – | – |
| OC[C@H]1O[C@@H](c2ccccc2)[C@H](O)[C@@H]1O [Compound A1, β-D-1-Deoxy-1-phenyl-ribofuranose] | > 400 | > 400 | > 400 | > 50 | > 50 | 96 | 96.7 | 92.7 | 93.4 | – | 89.2 | 62.4 | 106 | 93.3 | > 100 | > 100 | > 50 | > 50 | > 200 | > 200 | effect on cell proliferation (in words) ([8]; Molt4/C8, CEM/0): no effect; IC50 [10]: > 200 µg/mL; IC50 [11]: > 200 µg/mL; melting point: 118 °C |
| CC(C)[Si]1(C(C)C)OC[C@H]2OC(c3ccccc3)C[C@@H]2O[Si](C(C)C)(C(C)C)O1 (stereo partly drawn) [Compound A6 A + B, α-β-D-1,2-dideoxy-1-phenyl-3,5-O-(1,1,3,3-tetraisopropyldisiloxanylidene)-ribofuranose] | – | – | – | – | – | 95 | 95 | 92 | 94 | 98.0 | 85 | 56 | 54 | 102 | – | – | – | – | – | – | – |
| CO[C@@H]1[C@@H]2O[C@H](c3ccccc3)OC[C@H]2O[C@H]1c1ccccc1 [Compound A5, β-D-1-Deoxy-1-phenyl-2-O-methyl-3,5-O-benzylidene-ribose] | – | – | – | – | – | 92 | 92 | 91 | 124 | 95.0 | 120 | 66 | 57 | 76 | – | – | – | – | – | – | activity against CMV (in words) (CMV AD-169 Strain): slight |
| CO[C@@H]1[C@@H]2O[Si](C(C)C)(C(C)C)O[Si](C(C)C)(C(C)C)OC[C@H]2O[C@H]1c1ccccc1 [Compound A3, β-D-1-Deoxy-1-phenyl-2-O-methyl-3,5-O-(1,1,3,3-tetraisopropyldisiloxanylidene)-ribofuranose] | > 16 | > 16 | > 16 | 1.3 (≈ 2.79 µM) | 1.3 (≈ 2.79 µM) | 94.2 | 92.5 | 87.6 | 91.3 | – | 62.2 | 64.4 | 37.5 | 81.1 | > 4 | > 4 | > 2 | > 2 | 18 ± 0.5 (≈ 38.6 µM) | 15 (≈ 32.1 µM) | activity against CMV (in words) (CMV AD-169 Strain): significant activity; cytostatic activity (in words) ([8]; text summary over L1210/0, FM3A, Molt4/C8, CEM/0): small cytostatic activity; IC50 [10]: 19 ± 2 µg/mL (≈ 40.7 µM); IC50 [11]: 20 ± 4 µg/mL (≈ 42.8 µM) |
| OC[C@H]1O[C@@H](c2ccccc2)C[C@@H]1O [Compound A8, β-D-1,2-dideoxy-1-phenyl-ribofuranose] | > 400 | > 400 | > 400 | > 100 | > 100 | 95.5 | 92.3 | 92.7 | 99.2 | 96.2 | 92.4 | 95 | 107 | 84.8 | – | – | – | – | – | – | melting point: 89 to 91 °C |
| CO[C@@H]1[C@H](O)[C@@H](CO)O[C@H]1c1ccccc1 [Compound A4, β-D-1-Deoxy-1-phenyl-2-O-methyl-ribofuranose] | > 400 | > 400 | > 400 | > 50 | > 50 | 95.4 | 96.9 | 93.5 | 92.8 | – | 110 | 79.7 | 70.9 | 99.9 | > 100 | > 100 | > 50 | > 50 | > 200 | > 200 | effect on cell proliferation (in words) ([8]; Molt4/C8, CEM/0): no effect; IC50 [10]: > 200 µg/mL; IC50 [11]: > 200 µg/mL |
| CC1(C)O[C@H]2O[C@H](COCc3ccccc3)[C@H](OCc3ccccc3)[C@H]2O1 [Compound A9, α-D-1,2-O-isopropylidene-3,5-O-dibenzyl-xylofuranose] | > 80 | > 80 | 48 (≈ 130 µM) | 10.5 (≈ 28.3 µM) | 7.6 (≈ 20.5 µM) | 102 | 93.7 | 93 | 95.6 | 95.1 | 85.9 | 92 | 74 | 55.1 | – | – | > 80 | > 80 | – | – | activity against VV (in words) (VV; Table 2): slight activity; activity against CMV (in words) (CMV AD-169 Strain): significant activity |
